{"source": "patent US4454290A", "about": "“Stevioside analogs” (Dynapol, priority 1981, dated 1984)", "key": {"[1]": {"experiment": "Taste test by a group of volunteers / sensory comparison", "type": "in vivo", "conditions": "for Ip, sample intensity relative to 10% sucrose: mean value(2 Sm), 12 judgements, stevioside 500 ppm, Example 1 534 ppm, saccharin 330 ppm"}, "[2]": {"experiment": "Stability test: anaerobic incubation with fresh rat cecal contents, 37° C.", "type": "in vitro ADME", "method": "An important property of these stevioside analogs is their stability and resistance to conversion to steviol at the conditions of the mammalian gastrointestinal tract. […] At these conditions, no degradation to steviol occurs to a limit of detection of 0.13%.\nSteviolbioside, 3-sulfopropyl ester, potassium salt prepared in Part B. was incubated anaerobically for three days at 37° C. with 5 wt% fresh rat cecal contents, at concentrations of 0.25, 0.5, and 1.0 mg/ml in sterile Krebs-Ringer 0.25M phosphate buffer (pH 7.4) containing 0.25 mg/ml dithiothreitol and 0.25 mg/ml α-D-glucose. […] No steviol (Rf =0.95; tR =31.3 min) was detected. After 3 days the bacterial cells were sedimented by centrifugation. The sediment was extracted (THF), as was the supernatant, after lyophilization. […] With a detection limit of […], as little as 0.03 and 0.13 percent degradation to steviol could have been detected for the sediment and supernatant fractions, respectively."}, "[3]": {"experiment": "Use in comestibles (taste of sweetened beverages and gelatin)", "type": "in vivo", "method": "Based on the results of Part D, one can employ the compound of Part B as a sweetener for comestibles. In exemplary uses 0.08% by weight of the compound is dissolved in an unsweetened cola beverage, a like concentration of the compound is added to an unsweetened lemonade and to coffee. […] In two other cases, 0.04% by weight is added to coffee along with 0.02% by weight of saccharin and 3% by weight of sucrose, respectively. […] B.\nCups of coffee are prepared: To each is added 500 ppm by weight, basis solution, of one of each of the sweeteners prepared in Examples II-VIII. The coffees present a sweetened taste when sampled.\nGelatin, food color and fruit flavor are dissolved in water at levels suitable for forming a jelled food product. The solution is not sweet. The materials of Claims II-VIII are each added to separate samples in amounts of 600 ppm and the samples are cast into jelled products. The resulting gelatin products are sweet."}, "[4]": {"experiment": "Taste test by a group of volunteers / sensory comparison", "type": "in vivo", "conditions": "for Pm, potency compared to sucrose = 1, molar basis / Pw, potency compared to sucrose = 1, weight basis / Taste Character, Bitter / Taste Character, Other / Taste Character, Salty / Taste Character, Sour / Taste Character, Sweet / Taste Character, Sweet/bitter, other: 12 judgements, stevioside 500 ppm, Example 1 534 ppm, saccharin 330 ppm; for taste of the material: concentration not given", "method": "Steviolbioside, 3-sulfopropyl ester, potassium salt prepared in Part B. was dissolved in distilled water at a concentration of 0.2 wt% and tasted by a group of volunteers. […] The solution was diluted to 0.0534 wt% and retasted."}, "[5]": {"conditions": "Wingard et al., Experientia; cited from earlier work"}, "[6]": {"conditions": "Bridel et al., cited from earlier work"}, "[7]": {"conditions": "likelihood suggested by Wingard et al., 1980; cited from earlier work"}, "[8]": {"conditions": "likelihood suggested by Wingard et al., 1980; cited from earlier work", "remark": "listed apart in the source"}, "[9]": {"conditions": "Dorfman et al.; cited from earlier work"}, "[10]": {"system": "ATP synthetase", "conditions": "in cell mitochondria; Vignais 1966; cited from earlier work"}, "[11]": {"conditions": "compared with material of Example I"}, "[12]": {"conditions": "1000 ppm by weight in distilled water"}}, "note": "Counter-ions that a name gives are not always drawn.", "data": [{"smiles": "C=C1C[C@@]23CC[C@H]4[C@@](C)(CCC[C@@]4(C)C(=O)OCCCS(=O)(=O)O)[C@@H]2CC[C@]1(O[C@@H]1O[C@H](CO)[C@@H](O)[C@H](O)[C@H]1O[C@@H]1O[C@H](CO)[C@@H](O)[C@H](O)[C@H]1O)C3", "note": "[Example I, Steviolbioside, 3-sulfopropyl ester, potassium salt]", "values": [{"measurement": "Ip, sample intensity relative to 10% sucrose", "setting": "[1]", "value": "0.84(0.06)"}, {"measurement": "time within which all the initial ester was consumed", "setting": "[2]; 5 wt% fresh rat cecal contents, 0.25, 0.5 and 1.0 mg/ml, pH 7.4, 37° C., anaerobic, TLC and HPLC", "value": "≤ 24", "unit": "h"}, {"measurement": "steviol in THF extracts (HPLC)", "setting": "[2]; after 3 days, sediment and supernatant extracts", "value": "none to be detectable"}, {"measurement": "steviol detected (TLC and HPLC of incubation)", "setting": "[2]; rat cecal contents, 37° C.", "value": "No steviol"}, {"measurement": "degradation product formed", "setting": "[2]; rat cecal contents, within 24 h, TLC and HPLC", "value": "apparently only the sulfopropyl ester of steviol"}, {"measurement": "sweetness in comestibles, with co-sweetener", "setting": "[3]; 0.04% by weight in coffee with 0.02% saccharin or 3% sucrose", "value": "sweetness is imparted"}, {"measurement": "sweetness in comestibles", "setting": "[3]; 0.08% by weight in unsweetened cola, unsweetened lemonade and coffee", "value": "sweetness is imparted"}, {"measurement": "taste quality", "setting": "[4]; 0.0534 wt%", "value": "very sucrose-like, having negligible off-flavors"}, {"measurement": "sweetness equivalent", "setting": "[4]; 0.0534 wt% in distilled water", "value": "8-9 wt% sucrose"}, {"measurement": "taste of solution", "setting": "[4]; 0.2 wt% in distilled water", "value": "very intense sweet taste"}, {"measurement": "Pm, potency compared to sucrose = 1, molar basis", "setting": "[4]", "value": "360(20)"}, {"measurement": "Pw, potency compared to sucrose = 1, weight basis", "setting": "[4]", "value": "160(10)"}, {"measurement": "Taste Character, Bitter", "setting": "[4]", "value": "4(6) %"}, {"measurement": "Taste Character, Other", "setting": "[4]", "value": "4(4) %"}, {"measurement": "Taste Character, Salty", "setting": "[4]", "value": "0(0) %"}, {"measurement": "Taste Character, Sour", "setting": "[4]", "value": "0(0) %"}, {"measurement": "Taste Character, Sweet", "setting": "[4]", "value": "92(6) %"}, {"measurement": "Taste Character, Sweet/bitter, other", "setting": "[4]", "value": "92/8"}, {"measurement": "taste compared with saccharin and stevioside", "setting": "[4]; Table II", "value": "superior to the tastes of saccharin and stevioside itself"}]}, {"smiles": "C=C1C[C@@]23CC[C@H]4[C@@](C)(CCC[C@@]4(C)C(=O)OCCCS(=O)(=O)O)[C@@H]2CC[C@]1(O[C@@H]1O[C@H](CO)[C@@H](O)[C@H](O)[C@H]1O[C@@H]1O[C@H](CO)[C@@H](O)[C@H](O)[C@H]1O)C3", "note": "[II, steviolbioside, 3-sulfopropyl ester, sodium salt]", "values": [{"measurement": "stability properties evaluated as in Part C of Example I", "setting": "[2]; [11]", "value": "same advantageous properties"}, {"measurement": "use in comestibles evaluated as in Part E of Example I", "setting": "[3]; [11]", "value": "same advantageous properties"}, {"measurement": "taste properties evaluated as in Part D of Example I", "setting": "[4]; [11]", "value": "same advantageous properties"}]}, {"smiles": "C=C1C[C@@]23CC[C@H]4[C@@](C)(CCC[C@@]4(C)C(=O)OCCCCS(=O)(=O)O)[C@@H]2CC[C@]1(O[C@@H]1O[C@H](CO)[C@@H](O)[C@H](O)[C@H]1O[C@@H]1O[C@H](CO)[C@@H](O)[C@H](O)[C@H]1O)C3", "note": "[III, steviolbioside, 4-sulfobutyl ester, sodium salt]", "values": [{"measurement": "taste of the material", "setting": "[4]", "value": "sweet, like the material of Example I"}]}, {"smiles": "O=C1NS(=O)(=O)c2ccccc21", "note": "[Saccharin, saccharin, reference compound]", "values": [{"measurement": "Ip, sample intensity relative to 10% sucrose", "setting": "[1]", "value": "0.98(0.09)"}, {"measurement": "Pm, potency compared to sucrose = 1, molar basis", "setting": "[4]", "value": "180(20)"}, {"measurement": "Pw, potency compared to sucrose = 1, weight basis", "setting": "[4]", "value": "300(30)"}, {"measurement": "Taste Character, Bitter", "setting": "[4]", "value": "12(8) %"}, {"measurement": "Taste Character, Other", "setting": "[4]", "value": "3(2) %"}, {"measurement": "Taste Character, Salty", "setting": "[4]", "value": "0(0) %"}, {"measurement": "Taste Character, Sour", "setting": "[4]", "value": "0(0) %"}, {"measurement": "Taste Character, Sweet", "setting": "[4]", "value": "85(6) %"}, {"measurement": "Taste Character, Sweet/bitter, other", "setting": "[4]", "value": "85/15"}]}, {"smiles": "C=C1C[C@@]23CC[C@H]4[C@@](C)(CCC[C@@]4(C)C(=O)O[C@@H]4O[C@H](CO)[C@@H](O)[C@H](O)[C@H]4O)[C@@H]2CC[C@]1(O[C@@H]1O[C@H](CO)[C@@H](O)[C@H](O)[C@H]1O[C@@H]1O[C@H](CO)[C@@H](O)[C@H](O)[C@H]1O)C3", "note": "[Stevioside, stevioside]", "values": [{"measurement": "degradation to steviol", "setting": "[5]", "value": "essentially quantitative degradation to steviol"}, {"measurement": "Ip, sample intensity relative to 10% sucrose", "setting": "[1]", "value": "0.94(0.06)"}, {"measurement": "sweetness relative to sucrose", "setting": "[6]; 1931", "value": "about 300 times as sweet as sucrose"}, {"measurement": "bitterness of taste", "setting": "[6]", "value": "substantial degree of bitterness"}, {"measurement": "conversion to steviol in vivo", "setting": "[7]", "value": "largely converted to steviol in vivo"}, {"measurement": "Pm, potency compared to sucrose = 1, molar basis", "setting": "[4]", "value": "440(30)"}, {"measurement": "Pw, potency compared to sucrose = 1, weight basis", "setting": "[4]", "value": "190(10)"}, {"measurement": "Taste Character, Bitter", "setting": "[4]", "value": "30(10) %"}, {"measurement": "Taste Character, Other", "setting": "[4]", "value": "8(5) %"}, {"measurement": "Taste Character, Salty", "setting": "[4]", "value": "0(0) %"}, {"measurement": "Taste Character, Sour", "setting": "[4]", "value": "0(0) %"}, {"measurement": "Taste Character, Sweet", "setting": "[4]", "value": "62(10) %"}, {"measurement": "Taste Character, Sweet/bitter, other", "setting": "[4]", "value": "62/38"}]}, {"smiles": "C=C1C[C@@]23CC[C@H]4[C@@](C)(CCC[C@@]4(C)C(=O)OCC(=O)O)[C@@H]2CC[C@]1(O[C@@H]1O[C@H](CO)[C@@H](O)[C@H](O)[C@H]1O[C@@H]1O[C@H](CO)[C@@H](O)[C@H](O)[C@H]1O)C3", "note": "[VII, steviolbioside, carboxymethyl ester, sodium salt]", "values": [{"measurement": "taste of the material", "setting": "[4]", "value": "sweet"}]}, {"smiles": "C=C1C[C@@]23CC[C@H]4[C@@](C)(CCC[C@@]4(C)C(=O)OCCC(S(=O)(=O)O)S(=O)(=O)O)[C@@H]2CC[C@]1(O[C@@H]1O[C@H](CO)[C@@H](O)[C@H](O)[C@H]1O[C@@H]1O[C@H](CO)[C@@H](O)[C@H](O)[C@H]1O)C3", "note": "[VIII]", "values": [{"measurement": "taste of solution", "setting": "[1]; [12]", "value": "exceedingly sweet"}, {"measurement": "sweetness intensity equal to sucrose solution", "setting": "[4]; [12]", "value": "10-12 % sucrose"}]}, {"smiles": "C=C1C[C@@]23CC[C@H]4[C@@](C)(CCC[C@@]4(C)C(=O)OCCC(N)C(=O)O)[C@@H]2CC[C@]1(O[C@@H]1O[C@H](CO)[C@@H](O)[C@H](O)[C@H]1O[C@@H]1O[C@H](CO)[C@@H](O)[C@H](O)[C@H]1O)C3", "note": "(some centres unmarked) [VI]", "values": [{"measurement": "taste of the material", "setting": "[4]", "value": "sweet and sucrose like"}]}, {"smiles": "C=C1C[C@@]23CC[C@H]4[C@@](C)(CCC[C@@]4(C)C(=O)OC(CCC(=O)O)C(=O)O)[C@@H]2CC[C@]1(O[C@@H]1O[C@H](CO)[C@@H](O)[C@H](O)[C@H]1O[C@@H]1O[C@H](CO)[C@@H](O)[C@H](O)[C@H]1O)C3", "note": "(some centres unmarked) [V]", "values": [{"measurement": "taste of the material", "setting": "[4]", "value": "sweet"}]}, {"smiles": "C=C1C[C@@]23CC[C@H]4[C@@](C)(CCC[C@@]4(C)C(=O)O)[C@@H]2CC[C@]1(O)C3", "note": "[steviol]", "values": [{"measurement": "absorption through the gastrointestinal tract wall", "setting": "[8]", "value": "completely absorbed"}, {"measurement": "antiandrogenic effects", "setting": "[9]", "value": "antiandrogenic effects"}, {"measurement": "inhibition of ATP synthetase compared with atractyligenin", "setting": "[10]", "value": "even more potent inhibitor of ATP synthetase"}]}]}
